Source: patent publication US20200368247A1, “CENICRIVIROC FOR THE TREATMENT OF FIBROSIS” (Tobira Therapeutics, Inc., priority 2014, published 2020)
Values belong to the compound of their own block, whether it stands above or below them.

Assays:
CCR2 = biological target: T1, CCR2 (Homo sapiens, UniProt P41597); experiment: CCR2 receptor occupancy / MCP-1-induced CCR2 internalization in PBMCs, flow cytometry; assay type: cell-based
T1 construct: endogenous in cells; host or cells: monocytes within PBMCs from HIV+ and HIV- subjects
T1 sequence (P41597 1-360 isoform P41597-2): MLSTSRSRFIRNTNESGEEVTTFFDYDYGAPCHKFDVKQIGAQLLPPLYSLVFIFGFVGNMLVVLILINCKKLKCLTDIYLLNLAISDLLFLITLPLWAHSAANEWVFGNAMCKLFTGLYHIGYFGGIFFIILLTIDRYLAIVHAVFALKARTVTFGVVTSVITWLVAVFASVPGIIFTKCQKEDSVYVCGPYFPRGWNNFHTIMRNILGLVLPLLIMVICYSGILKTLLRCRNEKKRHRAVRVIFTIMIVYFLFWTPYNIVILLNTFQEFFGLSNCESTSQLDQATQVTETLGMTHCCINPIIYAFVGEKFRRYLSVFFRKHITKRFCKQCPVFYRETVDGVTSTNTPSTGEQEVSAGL
Method: (§1) The capacity of each drug to inhibit CCR5 or CCR2 internalization was evaluated. Cell-surface expression of CCR5 and CCR2 was assessed by flow cytometry, and fluorescence values were converted into molecules of equivalent soluble fluorescence (MESF).

CCR5 [1] = biological target: T2, CCR5 (Homo sapiens, UniProt P51681); experiment: Inhibition of ligand binding to CCR5-expressing CHO cells
CCR5 [2] = biological target: T2, CCR5; experiment: CCR5 receptor occupancy / RANTES-induced CCR5 internalization in PBMCs, flow cytometry; assay type: cell-based; conditions: at saturating concentration
Method: as §1

HIV-1 BaL = experiment: PM-1 cells exposed to HIV-1 BaL: virus in culture fluids (qRT-PCR, p24) and intracellular strong-stop DNA; assay type: cell-based; conditions: 4 hrs
Description: Cells. PM-1 cells that express CD4, CCR5, and CXCR4 were maintained in RPMI-1640 medium containing 10% fetal bovine serum (R10 medium) at 37 C, 5% CO2. 293T cells used for transfection were maintained in DMEM at 10% FBS, L-glutamine, and antibiotics (D10 medium) at 37 C, 5% CO2. Virus Stocks. HIV-1 BaL virus was produced by transfecting 293T cells with the plasmid pWT/BaL. Lipofectamine 2000 was used as a transfection agent. Culture supernatants were collected at 48 hrs post-transfection, filtered through a 0.45 μm pore filter, and treated with 50 units of benzonase per ml of virus stock for 20 minutes at 37 C to remove contaminating plasmid DNA. […]
Both drugs were incubated with PM-1 cells for 1 hr at 37 C prior to the addition of virus. […] Viral adsorption was measured in the no-drug controls, whereby 500 ng of p24 Ag of HIV-1 Bal were added per 5×10^5 PM-1 cells that were pre-incubated at 37 C for 1 hr in the absence of drug treatment. […] Supernatant viral loads were measured using quantitative real-time reverse transcription PCR (qRT-PCR) with the primers US1SSF (5′-ΔΔ[…]-3′), US1SSR (5′-[…]-3′) and US1SS probe (5′-(FAM) […]) and the Invitrogen qRT-PCR Supermix Kit. […] RNA copy number was quantified by use of 10-fold serial dilutions of pBaL/wt to generate standard curves for each assay and calibrated against samples with known copy numbers from previous studies. […]

T2 sequence (P51681 whole entry): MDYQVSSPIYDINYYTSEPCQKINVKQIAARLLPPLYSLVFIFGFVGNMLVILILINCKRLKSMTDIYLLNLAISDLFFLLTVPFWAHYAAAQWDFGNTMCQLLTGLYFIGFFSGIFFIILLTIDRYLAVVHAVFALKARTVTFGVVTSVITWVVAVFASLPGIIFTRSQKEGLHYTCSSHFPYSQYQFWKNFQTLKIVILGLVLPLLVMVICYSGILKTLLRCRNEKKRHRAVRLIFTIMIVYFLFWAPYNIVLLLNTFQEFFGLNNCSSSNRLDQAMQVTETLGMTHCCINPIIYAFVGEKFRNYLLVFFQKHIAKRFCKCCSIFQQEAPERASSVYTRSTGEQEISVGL

concentration required to reach >80% receptor occupancy (CCR2; CCR2, average): 18 nM
CCR2 cell-surface expression (CCR2; in the absence of MCP-1, monocytes): slightly increased
Compound: CSc1ccc(C(=O)N[C@@H]2CCCC[C@@H]2NC(=O)CNC(=O)c2cc(C(F)(F)F)ccc2NC(=O)NC(C)C)cc1 [BMS-22, reference compound]

IC50 relative to the IC50 of CVC (CCR5 [1]; RANTES binding to CCR5-expressing cells): approximately 2 fold
Compound: CCCCOCCOc1ccc(-c2ccc3c(c2)C=C(C(=O)Nc2ccc(S(=O)(=O)Cc4cncn4CCC)cc2)CCCN3CC(C)C)cc1 [M-I]

IC50, inhibition of binding of RANTES to CCR5-expressing cells (CCR5 [1]; CHO cells): no effect
Compound: CCCCOCCOc1ccc(-c2ccc3c(c2)C=C(C(=O)Nc2ccc(SC)cc2)CCCN3CC(C)C)cc1 [M-II]

Compound: Maraviroc [MVC]
CCR5 receptor occupancy (CCR5 [2]; CD4+ T cells): ~86%
CCR5 receptor occupancy (CCR5 [2]; CD8+ T cells): ~87%
p24 antigen level in culture fluids (HIV-1 BaL; CVC 20 nM, MVC 50 nM, baseline 506): 520 ng/mL
relative intracellular strong-stop HIV DNA level compared to no drug control (HIV-1 BaL; PM-1 cells): 0.02
